For one data set, the system named is Influenza B virus. Description: Antiviral activity against influenza B virus. The format is functional, organism-based.
For data set [1], the system named is Influenza A virus. In kind it is functional, organism-based. Particulars: H3N2, 500 uM.
Data set [2] is described as follows: Selectivity index, ratio of MCC for MDCK cells to EC50 for influenza A virus H3N2. In kind it is toxicity, cell-based. Particulars: dog.
Data set [3] deals with Influenza A virus. Kind of data set: microbe, parasite or virus in culture. Particulars: H3N2, 72 h.
Description: (§1) Antiviral activity against influenza A virus H3N2 assessed as inhibition of virus-induced cytopathic effect after 72 hrs by MTS assay
A short description of data set [4]: Cytotoxicity against MDCK cells assessed as changes in cell morphology after 72 hrs […]. The following applies: dog. In kind it is cell-based, Canis lupus familiaris. A general note: Formazan colour is commonly taken as a measure of viable cells.
Data set [5] concerns Influenza A virus.
Description: as §1

The source made the active and inactive calls. The rule behind the calls is not given here.

On to `C1CC23CC4CC(CC(C4)C2CN1)C3` (stereo not given), for which the result in the data set on Influenza B virus and with Influenza A virus [1] was inactive.
As for `CN1CCC2C3CC4CC(C3)CC2(C4)C1` (stereo not given), the result with Influenza B virus and with Influenza A virus [1] was inactive.
For `CN1CC2C3CC4CC(C3)CC2(C4)C1` (stereo not given), the result in the data set on Influenza B virus was inactive. In data set [2], the selectivity ratio turned out to be 35. In addition, in the data set with Influenza A virus [3], the EC50 (as a rule, the concentration that produces a half-maximal response) came to 2.4 µM. In addition, in data set [4], the MCC at 72 h is 83 µM.
The like results for `CCN1CCC23CC4CC(CC(C4)C12)C3` (stereo not given) were, in that order, “inactive”, 128, 3.4 µM and 439 µM.
Consider `CN1CCCC23CC4CC(CC(C4)C12)C3` (stereo not given), for which the outcome with Influenza B virus was inactive. In addition, the selectivity ratio in data set [2] worked out at 19. Moreover, the midpoint of the response with Influenza A virus [3], the EC50, lay at 4.4 µM. Besides, in data set [4], the MCC at 72 h worked out at 83 µM.
Take `CN1CCC23CC4CC(CC(C4)C12)C3` (stereo not given): in the data set on Influenza B virus, the result was inactive. For the same compound, the selectivity ratio in data set [2] is 11. Besides, the EC50 in the data set with Influenza A virus [3] turned out to be 7.7 µM. In addition, the MCC at 72 h in data set [4] stood at 83 µM.
The like results for `C1CC23CC4CC(CC(C4)C2N1)C3` (stereo not given) were, in that order, “inactive”, 217, 2.2 µM and 468 µM.
In the case of `NC(=O)c1ncn([C@@H]2O[C@H](CO)[C@@H](O)[C@H]2O)n1` [RIBAVIRIN], the result in the data set on Influenza B virus was inactive. The compound also displayed an EC50 with Influenza A virus [5] of 8.7 µM. For the same compound, the MCC at 72 h in data set [4] was 20 µM.
For `C1CNC2C3CC4CC(C3)CC2(C1)C4` (stereo not given), in the data set with Influenza B virus, the outcome was inactive. Moreover, the selectivity ratio in data set [2] worked out at 106. For the same compound, the concentration for a half-maximal effect (EC50) in the data set on Influenza A virus [3] came to 4.1 µM. In addition, the MCC at 72 h in data set [4] was 439 µM.
Turning to `CC(N)C12CC3CC(CC(C3)C1)C2` (stereo not given) [RIMANTADINE], the result in the data set on Influenza B virus was inactive. Further, the midpoint of the response with Influenza A virus [3], the EC50, lay at 0.36 µM. Moreover, the MCC at 72 h in data set [4] was greater than 500 µM.
Turning to `C1CC2C3CC4CC(C3)CC2(CN1)C4` (stereo not given), the result in the data set on Influenza B virus was inactive. Also, in data set [2], the selectivity ratio was greater than 732. This compound gave an EC50 with Influenza A virus [3] of 0.6 µM. The MCC at 72 h in data set [4] is 439 µM.
Regarding `CCN1CCC23CC4CC(CC(C4)C2C1)C3` (stereo not given), the outcome with Influenza B virus and in the data set on Influenza A virus [1] was inactive.
For the compound `NC12CC3CC(CC(C3)C1)C2` [AMANTADINE], the outcome with Influenza B virus was inactive. For the same compound, the selectivity ratio in data set [2] is greater than 250. Moreover, the midpoint of the response with Influenza A virus [3], the EC50, lay at 2 µM. Besides, the MCC at 72 h in data set [4] is greater than 500 µM.
For the compound `CN1CCC23CC4CC(CC(C4)C2C1)C3` (stereo not given), the outcome in the data set on Influenza B virus and in the data set with Influenza A virus [1] was inactive.
Turning to `C1C2CC3CC1CC1(CNCC31)C2` (stereo not given), the outcome with Influenza B virus was inactive. In addition, the selectivity ratio in data set [2] amounted to 200. This compound displayed an EC50 with Influenza A virus [3] of 0.5 µM. For the same compound, in data set [4], the MCC at 72 h was found to be 94 µM.

The values are drawn from ChEMBL document CHEMBL1152743, “Design and synthesis of 1,2-annulated adamantane piperidines with anti-influenza virus activity” (Bioorg Med Chem, 2009).
